The values below come from patent US12673921B2, “Substituted fluorine-containing imidazole salt compound, preparation method therefor, pharmaceutical composition thereof and use thereof” (XIAMEN VIVOHEALTHS TECHNOLOGY CO., LTD., priority 2019, dated 2026).

Where only a bound is given, the exact number is not on record here.

The subject of one data set is AMPK. Put plainly: AMPK activity assay at cell level (western blot of p-AMPKα and p-ACC in MEFs). It counts as cell-based, mouse. The following applies: MEF cells, compound 10 nM, 2 h; multiple of the ratio relative to positive control AICAR (3 mM); band brightness by Image J. The protocol:
The ability of compounds to activate AMPK in mouse embryonic fibroblasts (MEFs) was determined, which could be specifically carried out by detecting the phosphorylation level (p-AMPKα) of threonine at the 172nd position of AMPK and the phosphorylation level (p-ACC) of serine at the 79th position of the susbtrate ACC1/ACC2 of AMPK (FIG. 1 and Table I) by western blot.
The specific method was as follows: • (1) MEFs with loxP insertion sequences or of wild-type were plated in a 6-well plate and cultured in DMEM containing 10% serum. If a gene needed to be knocked out at this time, when the density of the corresponding MEFs with loxP insertion sequences reached about 30%, an adenovirus capable of expressing cre should be added to the culture well followed by further culture for more than 24 h; • (2) When the cell density was close to 90%, the cells were provided with fresh DMEM, at the same time, a compound (final concentration 10 nM) was added to the cells, followed by culture for 2 h, with an equal volume of DMSO as the negative control, and the cells treated with the addition of AICAR (3 mM) as the positive control; • (3) After sucking up the culture solution, the cells were lysed with 200 μL of a cell lysate (its formulation was given below), then the cells were scraped from the culture dish, ultrasonicated, and subjected to low temperature centrifugation at 20000 g for 10 min; • (4) The supernatant and an equal volume of 2*SDS solution (its formulation was given below) were mixed, and subjected to SDS-PAGE in a concentration of 8%, then the protein was transferred to PVDF membrane; each PVDF membrane was blocked with 25 mL of skim milk for 1 h, and then rinsed with TBST buffer (its formulation was given below) 3 times for 10 min each time; • (5) AMPKα subunit primary antibody (Cell Signaling Technology, #2532), primary antibody of phosphothreonine at the 172nd position of AMPK (Cell Signaling Technology, #2535), ACC primary antibody (Cell Signaling Technology, #3662), or primary antibody of phosphoserine at the 79th position of ACC (Cell Signaling Technology, #3661) was diluted in a ratio of 1:1000 with a primary antibody dilution (its formulation was given below), reacted with the PVDF membrane at room temperature for 12 h, and then rinsed 3 times with TBST buffer; • (6) A 1:1000 dilution of HRP-conjugated goat anti-rabbit secondary antibody (Jackson ImmunoResearch, 111-035-003) was added, reacted at room temperature for 1 h, and then rinsed 3 times with TBST buffer; • (7) The PVDF membrane was dried, reacted in an ECL mixture (WesternBright ECL HRP substrate, Advansta) and subjected to exposure with medical X-ray, developed, finally rinsed, dried, and then scanned to obtain data related to AMPK activation.
The formulations of reagents used were: • Cell lysate: 20 mM Tris-base, pH 7.5, 150 mM NaCl, 1 mM EDTA, 1 mM EGTA, 2.5 mM Sodium pyrophosphate, 1 mM β-glycerolphosphate, 1% Triton X-100 (v/v); • 2*SDS solution: 20% Glycerol (v/v), 4% SDS (m/v), 10% β-mecaptoethanol (v/v), 0.01% Bromophenol blue (m/v); • TBST buffer: 4.84% Tris-base (m/v), 8% NaCl (m/v), 0.1% Tween-20 (v/v); • Primary antibody dilution: TBST buffer containing 5% BSA (v/v).
For `Cc1n(CCCCCCCCCCCC(F)(F)C(F)(F)C(F)(F)C(F)(F)C(F)(F)C(F)(F)F)cc[n+]1Cc1c(Cl)cccc1Cl.[Cl-]` [IB-50], the “Degree of AMPK activation, p-ACC/ACC” value was 1.09 and the “Degree of AMPK activation, p-AMPKα/AMPK” value came out at 0.65.
On to `CC(C)c1n(CCCCCCCCCCCC(F)(F)C(F)(F)C(F)(F)C(F)(F)C(F)(F)F)cc[n+]1Cc1c(Cl)cccc1Cl.[Cl-]` [IB-41], for which the “Degree of AMPK activation, p-ACC/ACC” value is recorded as 1.49 and the “Degree of AMPK activation, p-AMPKα/AMPK” value came to 0.94.
Regarding `Cc1n(CCCCCCCCCCCC(F)(F)C(F)(F)C(F)(F)F)cc[n+]1Cc1c(Cl)cccc1Cl.[Cl-]` [IB-4], the “Degree of AMPK activation, p-ACC/ACC” value was found to be 0.80 and the “Degree of AMPK activation, p-AMPKα/AMPK” value is listed as 1.66.
Regarding `FC(F)(F)C(F)(F)C(F)(F)C(F)(F)C(F)(F)CCCCCCCCCCCn1cc[n+](Cc2c(Cl)cccc2Cl)c1C1CC1.[Cl-]` [IB-44], the “Degree of AMPK activation, p-ACC/ACC” value is given as 1.56 and the “Degree of AMPK activation, p-AMPKα/AMPK” value is listed as 0.59.
Consider `Cc1n(CCCCCCCCCCCC(F)(F)C(F)(F)C(F)(F)C(F)(F)F)cc[n+]1Cc1c(Cl)cccc1Cl.[Cl-]` [IB-16], for which the “Degree of AMPK activation, p-ACC/ACC” value worked out at 0.77 and the “Degree of AMPK activation, p-AMPKα/AMPK” value was determined as 2.28.
`Cc1n(CCCCCCCCCCCC(F)(F)C(F)(F)C(F)(F)C(F)(F)C(F)(F)F)cc[n+]1Cc1c(F)cccc1Cl.[Cl-]` [IB-34]: the “Degree of AMPK activation, p-ACC/ACC” value was 0.63 and the “Degree of AMPK activation, p-AMPKα/AMPK” value is reported as 0.98.
For `Cc1n(CCCCCCCCCCCC(F)(F)C(F)(F)C(F)(F)C(F)(F)C(F)(F)F)cc[n+]1Cc1c(Cl)cccc1Cl.[I-]` [IB-38], the “Degree of AMPK activation, p-ACC/ACC” value is on record as 1.34 and the “Degree of AMPK activation, p-AMPKα/AMPK” value was 2.06.
Turning to `CC(C)c1n(CCCCCCCCCCCC(F)(F)C(F)(F)C(F)(F)C(F)(F)F)cc[n+]1Cc1c(Cl)cccc1Cl.[Cl-]` [IB-24], the “Degree of AMPK activation, p-ACC/ACC” value was 1.60 and the “Degree of AMPK activation, p-AMPKα/AMPK” value amounted to 0.64.
As to `Cc1n(CCCCCCCCCCCCCCCCF)cc[n+]1Cc1c(Cl)cccc1Cl.Cl` [IA-1], the “Degree of AMPK activation, p-ACC/ACC” value was 0.42 and the “Degree of AMPK activation, p-AMPKα/AMPK” value is reported as 1.01.
For `COc1ccc(F)cc1C[n+]1ccn(CCCCCCCCCCCC(F)(F)C(F)(F)C(F)(F)F)c1.[Br-]` [IB-3] the same measures were 0.64 and 1.70.
As for `Cc1n(CCCCCCCCCCCC(F)(F)C(F)(F)C(F)(F)C(F)(F)C(F)(F)F)cc[n+]1Cc1c(Cl)cccc1Cl` [IB-60], the “Degree of AMPK activation, p-ACC/ACC” value was determined as 1.01 and the “Degree of AMPK activation, p-AMPKα/AMPK” value is 0.94.

Test system in another data set: not listed separately
Put plainly: Liver microsome stability test, Beagle dog liver microsome. The following applies: liver microsomes, 0.5 mg protein/mL microsome, 1 μM compound, 37° C., NADPH, read-out: DLM 0.5 T1/2 (min), half life in Beagle dog liver microsome. The data set is classed as in vitro ADME. As to the method:
(§1) The experimental steps were as follows: • 1. Preparation of working solution • 1.1 Intermediate solution: 5 μL of a 10 mM stock solution of sample or control was taken out, and diluted with 495 μl of methanol (Conc.: 100 μM, 99% MeOH). • 1.2 Working solution: 50 μL of the intermediate solution was taken out, and diluted with 450 μL of a 100 mM potassium phosphate buffer (Conc.: 10 μM, 9.9% MeOH). • 2. Preparation of NADPH cofactor
(§2) An appropriate amount of NADPH powder was weighed, and dissolved with a MgCl2 (10 mM) solution. • 3. Liver microsome • 3.1 Liver microsome information
(§3) • 3.2 Preparation: a microsome working solution with an appropriate concentration was prepared by using a 100 mM potassium phosphate buffer. • 4. Stop solution
(§4) Glacial acetonitrile, comprising 100 ng/ml Tolbutamide and 100 ng/ml Labetalol as internal standards. • 5. Experimental procedures • 5.1 10 μL of the working solution of sample or control was added per well to all plates (T0, T5, T10, T20, T30, T60, NCF60), except for the blank group; • 5.2 80 μL of the working solution of microsome was added per well to all plates, followed by incubation for 10 min at 37° C.; • 5.3 10 μL of a 100 mM potassium phosphate buffer was added per well to NCF60, followed by incubation at 37° C. and starting timer 1;
(§5) • 5.4 After preheating, 10 μL of NADPH was added per well to each plate, and reaction was started;
(§6) Final concentration of each component in the incubation medium:
(§7) • 5.6 300 μL of the stop solution was added per well to stop the reaction; • 5.7 The system was shaken for about 10 min; • 5.8 The samples were centrifuged (4000 rpm) at 4° C. for 20 min; • 5.9 To 8 new 96-well plates, 300 μL of HPLC water was added per well, then 100 μL of the supernatant was added, mixed and subjected to LC/MS/MS.
(§8) In the above table, HLM 0.5 T1/2 (min) refers to half life (min) of compounds in human liver microsome, DLM 0.5 T1/2 (min) refers to half life (min) of compounds in Beagle dog liver microsome.
On to `Cc1n(CCCCCCCCCCCCCCCCF)cc[n+]1Cc1c(Cl)cccc1Cl.Cl` [IA-1], for which the half-life at 1 μM amounted to 8.5 min.

The data set is the same for the next values; noted with them: microsomes, 0.5 mg protein/mL microsome, 1 μM compound, 37° C., NADPH, read-out: DLM 0.5 T1/2 (min), half life in Beagle dog liver microsome.
For the compound `Cc1n(CCCCCCCCCCCC(F)(F)C(F)(F)C(F)(F)C(F)(F)C(F)(F)C(F)(F)F)cc[n+]1Cc1c(Cl)cccc1Cl.[Cl-]` [IB-50], the half-life at 1 μM is 122 min.
In the case of `CC(C)c1n(CCCCCCCCCCCC(F)(F)C(F)(F)C(F)(F)C(F)(F)C(F)(F)F)cc[n+]1Cc1c(Cl)cccc1Cl.[Cl-]` [IB-41], the half-life at 1 μM was 79.7 min.
As to `Cc1n(CCCCCCCCCCCC(F)(F)C(F)(F)C(F)(F)F)cc[n+]1Cc1c(Cl)cccc1Cl.[Cl-]` [IB-4], the half-life at 1 μM is greater than 145 min.
The same measure, in the same setting: under `FC(F)(F)C(F)(F)C(F)(F)C(F)(F)C(F)(F)CCCCCCCCCCCn1cc[n+](Cc2c(Cl)cccc2Cl)c1C1CC1.[Cl-]` [IB-44] stands 127 min.
For the compound `Cc1n(CCCCCCCCCCCC(F)(F)C(F)(F)C(F)(F)C(F)(F)F)cc[n+]1Cc1c(Cl)cccc1Cl.[Cl-]` [IB-16], the half-life at 1 μM was greater than 145 min.
For the compound `Cc1n(CCCCCCCCCCCC(F)(F)C(F)(F)C(F)(F)C(F)(F)C(F)(F)F)cc[n+]1Cc1c(F)cccc1Cl.[Cl-]` [IB-34], the half-life at 1 μM stood at 110 min.
With `Cc1n(CCCCCCCCCCCC(F)(F)C(F)(F)C(F)(F)C(F)(F)C(F)(F)F)cc[n+]1Cc1c(Cl)cccc1Cl.[I-]` [IB-38], the half-life at 1 μM was greater than 145 min.

Test system in another data set: not listed separately
Description: Liver microsome stability test, human liver microsome. It counts as in vitro ADME. The note with it: liver microsomes, 0.5 mg protein/mL microsome, 1 μM compound, 37° C., NADPH, read-out: HLM 0.5 T1/2 (min), half life in human liver microsome. The protocol: as §1, §2, §3, §4, §5, §6, §7, §8
(In general: Microsomes from liver hold many membrane-bound enzymes, among them those of drug oxidation.)
On to `Cc1n(CCCCCCCCCCCCCCCCF)cc[n+]1Cc1c(Cl)cccc1Cl.Cl` [IA-1], for which the half-life at 1 μM turned out to be 22.3 min.

Staying with this data set, now noted: microsomes, 0.5 mg protein/mL microsome, 1 μM compound, 37° C., NADPH, read-out: HLM 0.5 T1/2 (min), half life in human liver microsome.
As for `Cc1n(CCCCCCCCCCCC(F)(F)C(F)(F)C(F)(F)C(F)(F)C(F)(F)C(F)(F)F)cc[n+]1Cc1c(Cl)cccc1Cl.[Cl-]` [IB-50], the half-life at 1 μM was greater than 145 min.
`CC(C)c1n(CCCCCCCCCCCC(F)(F)C(F)(F)C(F)(F)C(F)(F)C(F)(F)F)cc[n+]1Cc1c(Cl)cccc1Cl.[Cl-]` [IB-41]: the half-life at 1 μM was determined as 85.3 min.
`Cc1n(CCCCCCCCCCCC(F)(F)C(F)(F)C(F)(F)F)cc[n+]1Cc1c(Cl)cccc1Cl.[Cl-]` [IB-4]: the half-life at 1 μM was greater than 145 min.
The same measure, in the same setting: with `FC(F)(F)C(F)(F)C(F)(F)C(F)(F)C(F)(F)CCCCCCCCCCCn1cc[n+](Cc2c(Cl)cccc2Cl)c1C1CC1.[Cl-]` [IB-44] the figure was 93 min; with `Cc1n(CCCCCCCCCCCC(F)(F)C(F)(F)C(F)(F)C(F)(F)F)cc[n+]1Cc1c(Cl)cccc1Cl.[Cl-]` [IB-16], greater than 145 min.
Consider `Cc1n(CCCCCCCCCCCC(F)(F)C(F)(F)C(F)(F)C(F)(F)C(F)(F)F)cc[n+]1Cc1c(F)cccc1Cl.[Cl-]` [IB-34], for which the half-life at 1 μM was 192 min.
Same read-out and setting: with `Cc1n(CCCCCCCCCCCC(F)(F)C(F)(F)C(F)(F)C(F)(F)C(F)(F)F)cc[n+]1Cc1c(Cl)cccc1Cl.[I-]` [IB-38] the figure was greater than 145 min.
